Test results taken from patent US11285130B2, “Treatment of mitochondrial diseases” (Khondrion IP B.V., priority 2017, dated 2022).
Where two headings read alike, the source gives them in different places.

Legend:
[1] = MAD study pharmacokinetic analysis; format: in vivo, human; details: for AUC / Cmax / Tmax: male, human, plasma, oral; for Cmax: read-out: Cmax (Geomean); for Tmax: read-out: tmax* (median)
Method: (§1) Dose escalation to the next dose level was done after evaluation of the safety and the first 24-hour pharmacokinetic results of the previous dose. […] Anticipated exposures at this starting dose were just below the Minimum Anticipated Biological Effect Level (MABEL). Placebo (an in taste and appearance matching oral liquid) was also administered orally on one occasion in the single-ascending dose part and b.i.d. for 7 Days in the MAD part. […] All samples were stored at <-70° C. until analysis. […] For mean value calculations, all values below the limit of quantification (LOQ) were set to zero. […] The non-compartmental pharmacokinetic analysis was performed using Phoenix, Version 6.3 (Pharsight Corporation, Mountain View, Calif., USA). […] The PK parameters were calculated on the basis of the actual blood sampling time points relative to dosing. Selected pharmacokinetic parameters (Cmax, tmax, t1/2, AUClast and AUC0-int) following single-dose administration and selected pharmacokinetic parameters Cmax, tmax, [NT], the accumulation factor (Racc) and time to reach steady state) following multiple dose administration were determined. In urine, the percentage of dose excreted in urine was determined for the single- and multiple-dose administration.

Protein binding = format: in vitro ADME
[2] = SAD study safety and tolerability (adverse events), healthy male volunteers
[3] = SAD study pharmacokinetic analysis; format: in vivo, human; details: for AUC(0-t) / Cmax / Tmax / AUC(0-inf) / half-life: male, human, plasma, oral; for AUC(0-t): read-out: AUClast (Geomean); for Cmax: read-out: Cmax (Geomean); for AUC(0-inf): read-out: AUC0-inf (Geomean)
Method: as §1

[4] = Pharmacodynamic analysis of oxidized and reduced glutathione, MAD study; format: in vivo, human; details: Day 7, blood
Method: Blood samples for pharmacodynamic analyses were taken pre-dose and at 3, 6 and 24 h post dosing at Day 7 (MAD). All samples were stored in −80° C. until analysis. Quantification of oxidized and reduced glutathione was performed at York Bioanalytical solutions using a previously described validated method (Moore T et al, J Chromatogr B Analyt Technol Biomed Life Sci 2013, 929:51-55). Change from baseline in the concentrations of oxidized and reduced glutathione (GSH/GSSG) was calculated.

hERG potassium channel = hERG potassium channel (Homo sapiens, UniProt Q12809); assay: hERG blocking; format: biochemical
Sequence of hERG potassium channel (Q12809 whole entry): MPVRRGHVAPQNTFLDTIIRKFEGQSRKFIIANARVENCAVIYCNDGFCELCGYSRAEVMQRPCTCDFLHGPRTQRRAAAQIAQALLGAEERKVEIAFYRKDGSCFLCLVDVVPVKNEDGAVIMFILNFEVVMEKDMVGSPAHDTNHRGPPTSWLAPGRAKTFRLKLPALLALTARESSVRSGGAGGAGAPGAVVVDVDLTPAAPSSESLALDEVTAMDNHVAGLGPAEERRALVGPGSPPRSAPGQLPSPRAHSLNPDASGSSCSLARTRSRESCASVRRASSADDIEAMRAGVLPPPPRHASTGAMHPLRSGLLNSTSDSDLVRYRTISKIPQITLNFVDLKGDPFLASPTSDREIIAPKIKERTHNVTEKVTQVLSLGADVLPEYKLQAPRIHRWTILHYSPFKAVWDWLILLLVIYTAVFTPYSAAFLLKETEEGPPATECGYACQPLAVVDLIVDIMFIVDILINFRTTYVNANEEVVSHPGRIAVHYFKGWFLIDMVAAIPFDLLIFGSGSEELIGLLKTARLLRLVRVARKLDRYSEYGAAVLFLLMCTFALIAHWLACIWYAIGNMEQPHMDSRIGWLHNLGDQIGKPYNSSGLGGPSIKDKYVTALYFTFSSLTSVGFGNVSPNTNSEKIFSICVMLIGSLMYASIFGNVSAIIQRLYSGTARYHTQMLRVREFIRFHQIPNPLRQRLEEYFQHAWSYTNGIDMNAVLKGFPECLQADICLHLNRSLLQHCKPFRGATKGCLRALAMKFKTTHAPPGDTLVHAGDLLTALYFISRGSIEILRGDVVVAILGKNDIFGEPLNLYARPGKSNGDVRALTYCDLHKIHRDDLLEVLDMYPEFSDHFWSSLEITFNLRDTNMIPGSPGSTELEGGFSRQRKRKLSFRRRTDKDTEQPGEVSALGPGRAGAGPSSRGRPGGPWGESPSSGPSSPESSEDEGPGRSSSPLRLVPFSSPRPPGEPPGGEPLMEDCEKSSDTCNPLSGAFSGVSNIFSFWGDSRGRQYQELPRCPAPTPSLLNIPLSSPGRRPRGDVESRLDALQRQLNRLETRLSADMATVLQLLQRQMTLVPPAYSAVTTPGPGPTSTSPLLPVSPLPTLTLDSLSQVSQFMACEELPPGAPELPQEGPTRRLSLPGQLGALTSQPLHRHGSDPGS

[5] = tested on: primary human fibroblasts from patients with LHON; assay: Oxidative stress-induced cell death (BSO) assay, LHON patient fibroblasts; format: cell-based; details: Homo sapiens, Fibroblast; fibroblasts derived from LHON patients, 100 μM BSO; read-out: EC50, protection from oxidative stress-induced cell death
Description: To determine the effective concentration of the compounds (the concentrations that protect patient cells against oxidative stress-induced cell death) the applicant established an assay using stressed primary human fibroblasts from patients with Leigh syndrome, MELAS or LHON diseases. Utilising the inherent oxidative stress of fibroblasts from patients with mitochondrial disease, their oxidative burden was further increased by depleting cellular glutathione with an inhibitor of glutathione synthesis, L-buthionine-(S,R)-sulfoximine (BSO). […] Cells were seeded at a density of 3000 cells/well in a 96-well format and incubated with increasing concentrations of compounds in combination with BSO (100 μM, Sigma-aldrich). One day after treatment, the cells were washed twice and stained with a solution of 5 μM calcein-AM (Life technologies C3100MP) during 25 min in 199 medium without phenol red (Life technologies, 11043-023) at room temperature. After 2 washes with PBS (Phosphate buffered saline) the plate was read on a fluorescence plate reader (Fluostar Omega, BMG labtech) and the percentage of cell viability determined as a function of fluorescence intensity.

[6] = 100 mg, MAD, KH176 100 mg b.i.d, Day 1
[7] = 100 mg, MAD, KH176 100 mg b.i.d, Day 7
[8] = 200 mg, MAD, KH176 200 mg b.i.d, Day 1
[9] = 200 mg, MAD, KH176 200 mg b.i.d, Day 7
[10] = 400 mg, MAD, KH176 400 mg b.i.d, Day 1
[11] = 400 mg, MAD, KH176 400 mg b.i.d, Day 7
[12] = 10 mg, SAD, KH176 10 mg, fasted
[13] = 30 mg, SAD, KH176 30 mg, fasted
[14] = 100 mg, SAD, KH176 100 mg, fasted
[15] = 300 mg, SAD, KH176 300 mg, fasted
[16] = 800 mg, SAD, KH176 800 mg, fasted
[17] = 2000 mg, SAD, KH176 2000 mg, fasted

Cc1c(C)c2c(c(C)c1O)CC[C@@](C)(C(=O)N[C@@H]1CCCNC1)O2.Cl [KH176, (S)-6-hydroxy-2,5,7,8-tetramethyl-N-((R)-piperidin-3-yl)chroman-2-carboxamide hydrochloride]
Racc (accumulation ratio, Geomean) ([1]; MAD, KH176 100 mg b.i.d, Day 7): 2.52
Racc (accumulation ratio, Geomean) ([1]; MAD, KH176 200 mg b.i.d, Day 7): 2.65
Racc (accumulation ratio, Geomean) ([1]; MAD, KH176 400 mg b.i.d, Day 7): 2.17
steady concentrations reached by (first trough measurement) ([1]; MAD, mean trough concentration-time curves): ≤ 4 days
AUC ([1]; 100 mg, MAD, KH176 100 mg b.i.d, Day 1, read-out: AUCtau (Geomean)): 1090 ng·h/mL
Cmax [1, 6]: 184 ng/mL
Tmax [1, 6]: 1.25 h
AUC ([1]; 100 mg, MAD, KH176 100 mg b.i.d, Day 7, read-out: AUCtau (Geomean)): 2760 ng·h/mL
Cmax [1, 7]: 353 ng/mL
Tmax [1, 7]: 1 h
AUC ([1]; 200 mg, MAD, KH176 200 mg b.i.d, Day 1, read-out: AUCtau (Geomean)): 2250 ng·h/mL
Cmax [1, 8]: 313 ng/mL
Tmax [1, 8]: 1.75 h
AUC ([1]; 200 mg, MAD, KH176 200 mg b.i.d, Day 7, read-out: AUCtau (Geomean)): 5960 ng·h/mL
Cmax [1, 9]: 748 ng/mL
Tmax [1, 9]: 2 h
AUC ([1]; 400 mg, MAD, KH176 400 mg b.i.d, Day 1, read-out: AUCtau (Geomean)): 6890 ng·h/mL
Cmax [1, 10]: 1330 ng/mL
Tmax [1, 10]: 1 h
AUC ([1]; 400 mg, MAD, KH176 400 mg b.i.d, Day 7, read-out: AUCtau (Geomean)): 14900 ng·h/mL
Cmax [1, 11]: 2100 ng/mL
Tmax [1, 11]: 1.5 h
AUC ([1]; steady state, BID, read-out: AUCtau (one dosing interval, 12 hours), range): 2130 to 3680 ng·h/mL
average concentrations, range ([1]; steady state, 100 mg BID): 177.5 to 306.6 ng/mL
maximum concentration, range ([1]; steady state, 100 mg BID, healthy subjects): 303 to 458 ng/mL
fraction unbound (Protein binding): 0.4 to 0.5
TEAE: Influenza like illness (subjects) ([2]; SAD 10 mg (N = 4)): 0 n (%)
TEAE: Influenza like illness (subjects) ([2]; SAD 30 mg (N = 4)): 0 n (%)
TEAE: Influenza like illness (subjects) ([2]; SAD 100 mg (N = 4)): 0 n (%)
TEAE: Influenza like illness (subjects) ([2]; SAD 100 mg + Food (N = 4)): 0 n (%)
TEAE: Influenza like illness (subjects) ([2]; SAD 300 mg (N = 4)): 0 n (%)
TEAE: Influenza like illness (subjects) ([2]; SAD 800 mg (N = 6)): 0 n (%)
TEAE: Influenza like illness (subjects) ([2]; SAD 2000 mg (N = 4)): 0 n (%)
AUC0-inf ratio (fed/fasted), 90% CI ([3]; 100 mg, fed versus fasted): 1.28 (90% Cl 1.12-1.45)
administered dose excreted in urine as unchanged KH176 ([3]; SAD): approximately 12%
AUC(0-t) [3, 12]: 75 ng·h/mL
Cmax [3, 12]: 12.9 ng/mL
Tmax ([3]; 10 mg, SAD, KH176 10 mg, fasted, read-out: tmax* (median)): 1.25 h
AUC(0-inf) [3, 13]: 474 ng·h/mL
AUC(0-t) [3, 13]: 389 ng·h/mL
Cmax [3, 13]: 56.2 ng/mL
half-life ([3]; 30 mg, SAD, KH176 30 mg, fasted, read-out: t1/2 (Geomean) (converted)): 10.3 h
Tmax ([3]; 30 mg, SAD, KH176 30 mg, fasted, read-out: tmax* (median)): 1.25 h
AUC(0-inf) [3, 14]: 1540 ng·h/mL
AUC(0-t) [3, 14]: 1310 ng·h/mL
Cmax [3, 14]: 167 ng/mL
half-life ([3]; 100 mg, SAD, KH176 100 mg, fasted, read-out: t1/2 (Geomean) (converted)): 9.1 h
Tmax ([3]; 100 mg, SAD, KH176 100 mg, fasted, read-out: tmax* (median)): 1 h
AUC(0-inf) ([3]; 100 mg, SAD, KH176 100 mg, fed): 1970 ng·h/mL
AUC(0-t) ([3]; 100 mg, SAD, KH176 100 mg, fed): 1650 ng·h/mL
Cmax ([3]; 100 mg, SAD, KH176 100 mg, fed): 165 ng/mL
half-life ([3]; 100 mg, SAD, KH176 100 mg, fed, read-out: t1/2 (Geomean) (converted)): 9.09 h
Tmax ([3]; 100 mg, SAD, KH176 100 mg, fed, read-out: tmax* (median)): 2.5 h
Tmax ([3]; 100 mg, fasted condition (100 mg), read-out: median tmax): ~1 h
Tmax ([3]; 100 mg, fed condition (100 mg, high calorie/high fat breakfast), read-out: median tmax): 2.5 h
AUC(0-inf) [3, 15]: 7500 ng·h/mL
AUC(0-t) [3, 15]: 6320 ng·h/mL
Cmax [3, 15]: 766 ng/mL
half-life ([3]; 300 mg, SAD, KH176 300 mg, fasted, read-out: t1/2 (Geomean) (converted)): 9.64 h
Tmax ([3]; 300 mg, SAD, KH176 300 mg, fasted, read-out: tmax* (median)): 0.992 h
AUC(0-inf) [3, 16]: 25800 ng·h/mL
AUC(0-t) [3, 16]: 21000 ng·h/mL
Cmax [3, 16]: 2170 ng/mL
half-life ([3]; 800 mg, SAD, KH176 800 mg, fasted, read-out: t1/2 (Geomean) (converted)): 9.8 h
Tmax ([3]; 800 mg, SAD, KH176 800 mg, fasted, read-out: tmax* (median)): 1.5 h
AUC(0-inf) [3, 17]: 79100 ng·h/mL
AUC(0-t) [3, 17]: 61200 ng·h/mL
Cmax [3, 17]: 5990 ng/mL
half-life ([3]; 2000 mg, SAD, KH176 2000 mg, fasted, read-out: t1/2 (Geomean) (converted)): 11.5 h
Tmax ([3]; 2000 mg, SAD, KH176 2000 mg, fasted, read-out: tmax* (median)): 0.75 h
Tmax ([3]; SAD, across doses, read-out: median tmax): 0.75 to 1.5 h
half-life ([3]; SAD, approximate, across dose groups, read-out: t1/2 (converted)): ~10 h
Tmax ([3]; single- and multiple-dose administration, read-out: median tmax): 0.75 to 2 h
GSH/GSSG ratio, change from baseline [4]: No significant alterations
IC50 of hERG blocking relative to the Cmax for the highest dose (hERG potassium channel): 3 times
EC50 [5]: 49 nM
